Measurements published in patent US9150577B2, “Heterocyclic compounds containing an indole core” (Boehringer Ingelheim International GmbH, priority 2009, dated 2015).

What follows are compounds tested against Human RSK2 (Homo sapiens (Human), UniProt P51812) (assay: Human RSK2 assay (Kinase Glo Plus, residual ATP);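 note: recombinant human RSK2 phosphorylating a substrate peptide, 90 min at 28 °C, leftover ATP read by luminescence, RLU scaled between no-kinase background and uninhibited kinase controls, 4-parameter fit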).
Sequence of Human RSK2 (P51812 whole entry): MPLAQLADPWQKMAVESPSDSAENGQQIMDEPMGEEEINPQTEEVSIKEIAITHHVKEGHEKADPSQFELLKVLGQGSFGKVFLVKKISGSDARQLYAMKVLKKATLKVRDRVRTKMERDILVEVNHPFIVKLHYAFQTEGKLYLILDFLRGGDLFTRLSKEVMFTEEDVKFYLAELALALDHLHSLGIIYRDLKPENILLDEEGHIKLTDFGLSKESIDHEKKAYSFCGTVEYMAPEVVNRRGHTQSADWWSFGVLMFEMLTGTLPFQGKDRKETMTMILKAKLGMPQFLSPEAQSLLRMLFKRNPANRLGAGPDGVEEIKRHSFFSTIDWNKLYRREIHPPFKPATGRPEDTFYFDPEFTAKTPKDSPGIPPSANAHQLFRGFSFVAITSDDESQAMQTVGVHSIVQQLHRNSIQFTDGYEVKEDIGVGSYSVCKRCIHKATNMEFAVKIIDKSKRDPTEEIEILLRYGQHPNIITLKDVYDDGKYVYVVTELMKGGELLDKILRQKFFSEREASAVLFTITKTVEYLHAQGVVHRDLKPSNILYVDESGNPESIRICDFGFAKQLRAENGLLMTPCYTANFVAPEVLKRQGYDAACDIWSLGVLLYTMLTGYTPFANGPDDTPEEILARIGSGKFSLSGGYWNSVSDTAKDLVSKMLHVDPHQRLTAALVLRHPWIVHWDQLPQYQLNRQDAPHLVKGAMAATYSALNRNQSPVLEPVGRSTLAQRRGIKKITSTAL
Assay type: biochemical

Row | Structure (SMILES) | IC50
1 | Cc1cc(NC(=O)c2ccc3cc4n(c3c2)[C@H](C)CCNC4=O)no1 [Example 225, (5R)-5-methyl-N-(5-methyl-1,2-oxazol-3-yl)-1-oxo-2,3,4,5-tetrahydro-1H-[1,4]diazepino[1,2-a]indole-8-carboxamide] | 12 nM
2 | O=C(Nc1ccccc1Cl)c1ccc2cc3n(c2c1)CCCNC3=O [Example 216, N-(2-chlorophenyl)-1-oxo-2,3,4,5-tetrahydro-1H-[1,4]diazepino[1,2-a]indole-8-carboxamide] | 6000 nM
3 | O=C(Nc1nc2ccccc2n1CCN1CCOCC1)c1ccc2cc3n(c2c1)CCCNC3=O [Example 104, N-{1-[2-(morpholin-4-yl)ethyl]-1H-benzimidazol-2-yl}-1-oxo-2,3,4,5-tetrahydro-1H-[1,4]diazepino[1,2-a]indole-8-carboxamide] | 54 nM
4 | C[C@H]1CNC(=O)c2cc3ccc(C(=O)Nc4cccnc4)cc3n21 [Example 155, (4S)-4-methyl-1-oxo-N-(pyridin-3-yl)-1,2,3,4-tetrahydropyrazino[1,2-a]indole-7-carboxamide] | 2300 nM
5 | CN1CCC(Cn2c(NC(=O)c3ccc4cc5n(c4c3)CCCNC5=O)nc3ccccc32)CC1 [Example 88, N-{1-[(1-methylpiperidin-4-yl)methyl]-1H-benzimidazol-2-yl}-1-oxo-2,3,4,5-tetrahydro-1H-[1,4]diazepino[1,2-a]indole-8-carboxamide] | 21 nM
6 | CN(C)CCCn1c(NC(=O)c2ccc3cc4n(c3c2)CC2(CCNCC2)CNC4=O)nc2ccccc21 [Example 236, N-{1-[3-(dimethylamino)propyl]-1H-benzimidazol-2-yl}-1-oxo-2,3-dihydro-1H-spiro[1,4-diazepino[1,2-a]indole-4,4′-piperidine]-8-carboxamide] | 540 nM
7 | O=C(Nc1ccc2ccccc2n1)c1ccc2cc3n(c2c1)CCCNC3=O [Example 5, 1-oxo-N-(quinolin-2-yl)-2,3,4,5-tetrahydro-1H-[1,4]diazepino[1,2-a]indole-8-carboxamide] | 70 nM
8 | CC(C)n1ncc2cc(NC(=O)c3ccc4cc5n(c4c3)CCCNC5=O)cnc21 [Example 19, 1-oxo-N-[1-(propan-2-yl)-1H-pyrazolo[3,4-b]pyridin-5-yl]-2,3,4,5-tetrahydro-1H-[1,4]diazepino[1,2-a]indole-8-carboxamide] | 53 nM
9 | CN(C)CC(C)(C)Cn1c(NC(=O)c2ccc3cc4n(c3c2)CCCNC4=O)nc2ccccc21 [Example 84, N-{1-[3-(dimethylamino)-2,2-dimethylpropyl]-1H-benzimidazol-2-yl}-1-oxo-2,3,4,5-tetrahydro-1H-[1,4]diazepino[1,2-a]indole-8-carboxamide] | 30 nM

These reach a lower IC50. Values come first.

Row | IC50 | Structure (SMILES)
10 | 8 nM | O=C(Nc1nc2cc(Cl)ccc2[nH]1)c1ccc2cc3n(c2c1)CCCNC3=O [Example 47, N-(5-chloro-1H-benzimidazol-2-yl)-1-oxo-2,3,4,5-tetrahydro-1H-[1,4]diazepino[1,2-a]indole-8-carboxamide]
11 | 5.1 nM | CC1CNC(=O)c2cc3ccc(C(=O)Nc4cnn(C)c4)cc3n21 (centres unmarked) [Example 22, 4-methyl-N-(1-methyl-1H-pyrazol-4-yl)-1-oxo-1,2,3,4-tetrahydropyrazino[1,2-a]indole-7-carboxamide]
12 | 2.2 nM | CC1CNC(=O)c2cc3ccc(C(=O)Nc4nc5ccccc5n4C)cc3n21 (centres unmarked) [Example 61, 4-methyl-N-(1-methyl-1H-benzimidazol-2-yl)-1-oxo-1,2,3,4-tetrahydropyrazino[1,2-a]indole-7-carboxamide]
13 | 0.63 nM | CCn1c(NC(=O)c2ccc3cc4n(c3c2)C(C)CNC4=O)nc2ccccc21 (centres unmarked) [Example 83, N-(1-ethyl-1H-benzimidazol-2-yl)-4-methyl-1-oxo-1,2,3,4-tetrahydropyrazino[1,2-a]indole-7-carboxamide]
14 | 0.18 nM | C[C@@H]1NC(=O)c2cc3ccc(C(=O)Nc4nc5ccccc5n4CCCN(C)C)cc3n2[C@@H]1C [Example 139, (3S,4R)-N-{1-[3-(dimethylamino)propyl]-1H-benzimidazol-2-yl}-3,4-dimethyl-1-oxo-1,2,3,4-tetrahydropyrazino[1,2-a]indole-7-carboxamide]
